Assay results published in patent US7205127B2 (priority 2002, dated 2007).

Assays:
differentiated L6 cells = assay: 2-deoxy-glucose transport (glucose uptake) assay in differentiated L6 myotubes; format: cell-based, rat
Protocol: Rat skeletal muscle L6-K cells were grown in minimal essential medium (α-MEM Glutamax I) containing 10% fetal bovine serum at 37° C., 5% CO2. The cells were passaged twice weekly by treatment with trypsin-EDTA and transfer of ⅓ of the cells to new flasks with fresh culture medium. For differentiation into myotubes, 30,000 cells were seeded in 1 ml in 24-well plates. When the cells were confluent, usually after 3 days, the medium was replaced by differentiation medium consisting of α-MEM, 2% fetal bovine serum and penicillin/streptomycin at a concentration of 100 U/ml and 100 μg/ml, respectively. The medium was replaced every 2–3 days. Between days 4–7, differentiation medium containing 1 mM cytidine was used. The cells were differentiated for 8–10 days before being used in experiments.
On the day before the glucose transport assay, the wells of the culture plate were emptied and 1 ml serum free DMEM containing 5 mM glucose and penicillin/streptomycin was added. In some experiments the cells were treated over night with test compounds in 1 ml and additional treatments were added the next day to give a total volume of 2 ml. In these experiments, insulin (100–1000 nM) was added in 0.2 ml. When all treatments were performed after 20–24 h in serum free medium, a total volume of 1 ml was used. The wells were emptied and 0.5 ml prewarmed PBS without Ca^2+/mg^2+ containing 1 μCi/ml radioactive 2-deoxy-glucose added. After 10 min at 37° C., the wells were emptied and washed three times with cold PBS. The cell monolayer was solubilized in 0.5 ml 0.5 M NaOH for 3 h at room temperature. 400 μl was mixed with 8 ml scintillation fluid (Optiphase, Wallac) and counted in a scintillation counter (Packard TriCarb). Two 10-μl aliquots were used for determination of protein concentration using the method according to Bradford (Anal. Biochem., 1976, 72:248–54) from BioRad.
This effect is seen when cells are stimulated with 0.1–10 μM DPI for 1 h. A bell-shaped dose response curve for DPI with an optimum at 1 μM is recorded. The effect of suboptimal concentrations of DPI during a 1 h treatment could be stimulated further if insulin is added 30 min after DPI. However, insulin has little additional effect when the maximum effect of DPI is reached in the 1 h protocol (FIG. 1). The effective concentrations at which DPI stimulates glucose transport corresponds well to the concentrations inhibiting NAD(P)H oxidase activity in cell free systems [O'Donnell et al., Biochemical Journal, 290:41–9 (1993)]. […] On the basis of the above results it is postulated that DPI enhances a constitutive activity of the insulin receptor and/or the intracellular insulin-signaling pathway.
Assuming that the enhancing effect of DPI on insulin signaling was due to inhibition of ROS production, it was investigated whether an exogenous source of H2O2 could counteract the effect of DPI. To this end, L6 cells were treated with 25 mU/ml of glucose oxidase for 30 min before addition of DPI.

C57BL/6J ob/ob mice = conditions: 1 mg/kg i.p. once daily for 4 days
Protocol: Studies were conducted in vivo, in an animal model of obesity characterized by insulin resistance. Eight-month old C57BL/6J ob/ob mice (M&B A/S, Denmark) were matched for sex, weight and fasting blood glucose concentrations. The animals were injected intraperitoneally once daily with DPI (1 mg/kg) or water for 4 days. On day 5, the animals were fasted for 2.5 h and then given an i.p. injection of human insulin 0.5 U/kg (Actrapid, Novo Nordisk, Denmark) and their blood glucose levels were monitored for 4 h by sampling from the tail. The glucose concentration was determined using a Glucometer Accutrend Sensor (Roche).

[1] = system: thioredoxin-gp91phox fusion protein; conditions: in the presence of NAD(P)H and FAD; cited from earlier work
NAD(P)H oxidase = target: T1, NAD(P)H oxidase (Homo sapiens, UniProt P19878); conditions: most likely via binding to p67phox; cited from earlier work
T1 sequence (P19878 1-526): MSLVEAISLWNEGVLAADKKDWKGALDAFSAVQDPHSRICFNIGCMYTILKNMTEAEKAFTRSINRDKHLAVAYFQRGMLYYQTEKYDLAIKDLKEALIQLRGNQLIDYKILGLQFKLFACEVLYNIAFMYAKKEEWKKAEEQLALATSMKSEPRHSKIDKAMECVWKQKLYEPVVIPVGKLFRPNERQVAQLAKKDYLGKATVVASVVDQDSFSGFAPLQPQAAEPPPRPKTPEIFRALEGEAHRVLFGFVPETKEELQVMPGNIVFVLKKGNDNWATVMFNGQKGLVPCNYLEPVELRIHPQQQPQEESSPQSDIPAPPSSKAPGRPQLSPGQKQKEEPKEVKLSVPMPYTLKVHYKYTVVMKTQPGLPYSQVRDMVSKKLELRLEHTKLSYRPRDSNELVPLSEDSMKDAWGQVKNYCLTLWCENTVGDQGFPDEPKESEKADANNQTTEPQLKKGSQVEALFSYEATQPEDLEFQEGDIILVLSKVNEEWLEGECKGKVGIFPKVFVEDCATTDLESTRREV

In the case of `c1ccc2c(c1)[I+]c1ccccc1-2` [DPI, Diphenylene iodonium], the “optimum of bell-shaped dose response curve for glucose uptake” value (differentiated L6 cells; 1 h treatment) is reported as 1 µM, the “reduction of stimulatory effect on glucose transport by glucose oxidase” value (differentiated L6 cells; L6 cells treated with 25 mU/ml glucose oxidase for 30 min before addition of DPI (FIG. 2)) is reported as 68% and the “concentrations at which the increase in glucose uptake is seen” value (differentiated L6 cells; cells stimulated for 1 h) is reported as 0.1 to 10 µM. The glucose uptake (differentiated L6 cells; differentiated L6 cells incubated with DPI for 1 h (FIG. 1)) was “significant increase”, the “side effects of treatment” value (C57BL/6J ob/ob mice; ob/ob mice) was “Without any overt side effects” and the “blood glucose levels versus control group” value (C57BL/6J ob/ob mice; 1–4 h after injection of insulin 0.5 U/kg (FIG. 3)) was “significantly lower blood glucose levels”. The “diaphorase activity of thioredoxin-gp91phox fusion protein” value [1] was “inhibited”.
For Mastoparan, the “NAD(P)H oxidase activation” value (NAD(P)H oxidase) is given as “inhibit NAD(P)H oxidase activation”.
In the case of “insulin: bovine insulin purchased from Sigma, used to stimulate glucose transport”, the “reduction of insulin stimulated glucose transport by glucose oxidase” value (differentiated L6 cells; L6 cells treated with 25 mU/ml glucose oxidase, 200 nM insulin (FIG. 2)) is reported as 65%.
